In patent US9879024B2, “Crystal forms of (R)-N-methylnaltrexone bromide and uses thereof” (Progenics Pharmaceuticals, Inc., priority 2007, dated 2018) one finds solubility and water solubility data, which are given here for two compounds.

Common to all, as to type: physicochemical
The nature of data set [1]: Solubility of Form A at 37° C. under conditions that simulate the human GI tract (HPLC of filtrate). The conditions noted are these: thermodynamic from solid, 37° C. overnight. How it is done:
[…] All solutions were stored overnight in a 37° C. oven, and then filtered through a Whatman 0.45 μm nylon syringe filter to remove insoluble material.

Data set [2] is described as follows: Equilibrium solubility of Form A at room temperature in solvents and aqueous buffers. To be noted: thermodynamic from solid, read-out: Solubility at R.T. As to the method:
In each case, the equilibrium solubility of Form A at room temperature was measured by placing the compound in excess into different solvents and stirring overnight at ambient room temperature, protected from light. Solubility in the following solvents and aqueous buffers was evaluated at room temperature: methanol, ethanol, benzyl alcohol, dimethyl sulfoxide, water for injection, bacteriostatic water (containing 0.9% benzyl alcohol), 5% dextrose, normal saline (0.9% NaCl), pH 1.1 (glycine HCl), pH 4.2 (glycine HCl), pH 7.1 (phosphate buffer), and pH 9.1 (glycine). Solubilities are reported to the nearest mg/mL unless otherwise stated.

Data set [3] can be described thus: Water solubility of amorphous Compound 1. To be noted: qualitative statement, no data given.

As to `C[N+]1(CC2CC2)CC[C@]23c4c5ccc(O)c4O[C@H]2C(=O)CC[C@@]3(O)[C@H]1C5.[Br-]` (stereo partly drawn) [Form A, (R)-N-methylnaltrexone bromide], the solubility in data set [1] (aqueous buffer, pH 4.5 (acetate buffer)) is 100 mg/mL; in data set [1] (aqueous buffer, pH 6.8 (phosphate buffer)) it was 101 mg/mL; in data set [1] (aqueous buffer, pH 9.0 (borate buffer)), 101 mg/mL; in data set [1] (pH 1, simulated gastric fluid, 0.1N HCl), 101 mg/mL; in data set [2] (aqueous buffer, pH 4.2 (glycine HCl buffer)), 73.8 mg/mL; in data set [2] (aqueous buffer, pH 7.1 (phosphate buffer)), 74.9 mg/mL. For the same compound, the solubility was 71.1 mg/mL in data set [2] (aqueous buffer, pH 9.1 (glycine buffer)); more than 170 mg/mL in data set [2] (dimethyl sulfoxide, organic solvent or mixture, Dimethylsulfoxide, stirred overnight); 85.5 mg/mL in data set [2] (organic solvent or mixture, Benzyl alcohol, stirred overnight); 6.1 mg/mL in data set [2] (organic solvent or mixture, Ethanol, stirred overnight); 2.5 mg/mL in data set [2] (organic solvent or mixture, Methanol, stirred overnight); 61.3 mg/mL in data set [2] (saline or isotonic, 5% Dextrose, stirred overnight). Besides, the solubility was 59.7 mg/mL in data set [2] (saline or isotonic, Normal saline (0.9% NaCl), stirred overnight); 76.6 mg/mL in data set [2] (simulated gastric fluid, 0.1N HCl); 70.1 mg/mL in data set [2] (simulated gastric fluid, pH 1.1 (glycine HCl buffer)); 86.5 mg/mL in data set [2] (Bacteriostatic water (0.9% benzyl alcohol), stirred overnight); 73.5 mg/mL in data set [2] (Water for injection, stirred overnight).

On to `C[N+]1(CC2CC2)CC[C@]23c4c5ccc(O)c4O[C@H]2C(=O)CC[C@@]3(O)[C@H]1C5.[Br-]` (stereo partly drawn) [amorphous Compound 1, (R)-N-methylnaltrexone bromide], for which the water solubility result in data set [3] was “enhanced water solubility”.
